Data as given in PubChem BioAssay AID330 (DTP/NCI, 2004).
Values joined by “and” are separate entries in the source; they are usually repeats but may differ in a detail not shown here. Equal values may be shown once. Inconclusive results and toxic doses are left out.

System: P388 leukemia ip, CD2F1 mice, survival T/C
Test: NCI In Vivo Anticancer Drug Screen. Data for tumor model P388 Leukemia (intraperitoneal) in CD2F1 (CDF1) mice
Conditions: endpoint: median survival time, higher = longer survival
Procedure, shortened: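 Mice carrying the transplanted tumor received test compound or vehicle. Survival was recorded in each group, and the value is the treated-group measurement divided by that of the vehicle-treated control group.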

[1] = dose: 25.0 mg/kg/injection, schedule: Q01DX009 (ip), vehicle: saline
[2] = dose: 50.0 mg/kg/injection, schedule: Q01DX009 (ip), vehicle: saline
[3] = dose: 100.0 mg/kg/injection, schedule: Q04DX003 (ip), vehicle: saline with Tween-80
[4] = dose: 200.0 mg/kg/injection, schedule: Q01DX009 (ip), vehicle: saline with Tween-80
[5] = dose: 60.0 mg/kg/injection, schedule: Q01DX005 (ip), vehicle: Klucel (hydroxypropylcellulose) (HPC)
[6] = dose: 25.0 mg/kg/injection, schedule: Q01DX009 (ip), vehicle: saline with Tween-80
[7] = dose: 50.0 mg/kg/injection, schedule: Q01DX009 (ip), vehicle: saline with Tween-80
[8] = dose: 100.0 mg/kg/injection, schedule: Q01DX009 (ip), vehicle: saline with Tween-80
[9] = dose: 50.0 mg/kg/injection, schedule: Q01DX005 (ip), vehicle: Klucel (hydroxypropylcellulose) (HPC)
[10] = dose: 100.0 mg/kg/injection, schedule: Q01DX005 (ip), vehicle: Klucel (hydroxypropylcellulose) (HPC)
[11] = dose: 200.0 mg/kg/injection, schedule: Q01DX005 (ip), vehicle: Klucel (hydroxypropylcellulose) (HPC)

Compound: COC1C(C)OC(OC2CC(C)(O)Cc3cc4c(c(O)c32)C(=O)c2c(O)cc3c(c2C4=O)OC2OC3(C)C(O)C(N(C)C)C2O)C(OC)C1(C)OC (stereo not given)
- T/C (dose: 0.6 mg/kg/injection, schedule: Q01DX009 (ip), vehicle: other): 124 % of control
- T/C (dose: 0.75 mg/kg/injection, schedule: Q04DX003 (ip), vehicle: saline): 121 % of control
- T/C (dose: 1.0 mg/kg/injection, schedule: Q01DX009 (ip), vehicle: saline): 151 % of control
- T/C (dose: 1.0 mg/kg/injection, schedule: Q04DX003 (ip), vehicle: saline): 121 % of control
- T/C (dose: 1.25 mg/kg/injection, schedule: Q01DX009 (ip), vehicle: other): 151 % of control
- T/C (dose: 1.25 mg/kg/injection, schedule: Q04DX003 (ip), vehicle: other): 124 % of control
- T/C (dose: 1.5 mg/kg/injection, schedule: Q01DX009 (ip), vehicle: saline): 160 % of control
- T/C (dose: 2.0 mg/kg/injection, schedule: Q01DX009 (ip), vehicle: saline): 160 % of control
- T/C (dose: 2.5 mg/kg/injection, schedule: Q01DX009 (ip), vehicle: saline): 174 % of control
- T/C (dose: 2.5 mg/kg/injection, schedule: Q04DX003 (ip), vehicle: other): 153 % of control
- T/C (dose: 3.0 mg/kg/injection, schedule: Q01DX009 (ip), vehicle: saline): 169 % of control
- T/C (dose: 4.0 mg/kg/injection, schedule: Q01DX009 (ip), vehicle: saline): 180 % of control
- T/C (dose: 5.0 mg/kg/injection, schedule: Q01DX009 (ip), vehicle: saline): 193 % of control
- T/C (dose: 5.0 mg/kg/injection, schedule: Q04DX003 (ip), vehicle: saline): 150 % of control
- T/C (dose: 6.0 mg/kg/injection, schedule: Q04DX003 (ip), vehicle: water): 153 % of control
- T/C (dose: 10.0 mg/kg/injection, schedule: Q04DX003 (ip), vehicle: other): 165 % of control
- T/C (dose: 10.0 mg/kg/injection, schedule: Q04DX003 (ip), vehicle: saline with Tween-80): 157 % of control
- T/C (dose: 10.0 mg/kg/injection, schedule: Q04DX003 (ip), vehicle: saline): 156 % of control
- T/C (dose: 10.0 mg/kg/injection, schedule: Q04DX003 (ip), vehicle: water): 157 % of control
- T/C (dose: 12.0 mg/kg/injection, schedule: Q04DX003 (ip), vehicle: saline): 158 % of control
- T/C (dose: 12.5 mg/kg/injection, schedule: Q01DX001 (sc), vehicle: other): 103 % of control
- T/C (dose: 15.0 mg/kg/injection, schedule: Q04DX003 (ip), vehicle: saline with Tween-80): 150 % of control
- T/C (dose: 16.0 mg/kg/injection, schedule: Q04DX003 (ip), vehicle: saline): 112 % of control
- T/C (dose: 20.0 mg/kg/injection, schedule: Q04DX003 (ip), vehicle: other): 124 % of control
- T/C (dose: 25.0 mg/kg/injection, schedule: Q01DX001 (ip), vehicle: other): 157 % of control and 175 % of control
- T/C (dose: 25.0 mg/kg/injection, schedule: Q01DX001 (sc), vehicle: other): 100 % of control and 102 % of control
- T/C (dose: 50.0 mg/kg/injection, schedule: Q01DX001 (sc), vehicle: other): 103 % of control and 105 % of control
- T/C (dose: 100.0 mg/kg/injection, schedule: Q01DX001 (sc), vehicle: other): 99 % of control
- T/C (dose: 625.0 micrograms/kg/injection, schedule: Q01DX009 (ip), vehicle: other): 118 % of control
- T/C (dose: 1250.0 micrograms/kg/injection, schedule: Q01DX009 (ip), vehicle: other): 157 % of control
- T/C (dose: 2500.0 micrograms/kg/injection, schedule: Q01DX009 (ip), vehicle: other): 157 % of control and 172 % of control
- T/C (dose: 5000.0 micrograms/kg/injection, schedule: Q01DX009 (ip), vehicle: other): 90 % of control

Compound: N#CC[n+]1ccc2ccccc2c1
- T/C (dose: 12.5 mg/kg/injection, schedule: Q01DX009 (ip), vehicle: saline): 105 % of control
- T/C [1]: 99 % of control
- T/C [2]: 101 % of control

Compound: c1ccc(Cn2cc(CCc3ccncc3)c3ccccc32)cc1
- T/C [1]: 100 % of control
- T/C [2]: 100 % of control
- T/C (dose: 100.0 mg/kg/injection, schedule: Q01DX009 (ip), vehicle: saline): 100 % of control

Compound: COC(=O)C1CC(c2ccccc2)N(c2ccccc2)O1 (stereo not given) (tested in a mixture with another compound)
- T/C [3]: 95 % of control
- T/C (dose: 200.0 mg/kg/injection, schedule: Q04DX003 (ip), vehicle: saline with Tween-80): 96 % of control
- T/C (dose: 400.0 mg/kg/injection, schedule: Q04DX003 (ip), vehicle: saline with Tween-80): 94 % of control

Compound: CN(N=O)c1ccc(/C=C/c2ccnc3ccccc23)cc1
- T/C (dose: 88.0 mg/kg/injection, schedule: Q01DX009 (ip), vehicle: saline with Tween-80): 113 % of control
- T/C (dose: 132.0 mg/kg/injection, schedule: Q01DX009 (ip), vehicle: saline with Tween-80): 118 % of control
- T/C [4]: 154 % of control

Compound: O=C1CSC(=Nc2ccccc2)N1c1ccc(-n2c(-c3ccc(N=Cc4ccc(Cl)cc4)cc3)nc3ccccc3c2=O)cc1
- T/C [5]: 92 % of control

Compound: Clc1ccc(-n2nnc3cc(Cl)ccc32)c(Cl)c1
- T/C (dose: 6.25 mg/kg/injection, schedule: Q01DX005 (ip), vehicle: saline with Tween-80): 86 % of control and 96 % of control
- T/C (dose: 12.5 mg/kg/injection, schedule: Q01DX005 (ip), vehicle: saline with Tween-80): 94 % of control
- T/C (dose: 25.0 mg/kg/injection, schedule: Q01DX005 (ip), vehicle: saline with Tween-80): 90 % of control and 91 % of control
- T/C [6]: 103 % of control
- T/C [7]: 97 % of control
- T/C [8]: 101 % of control

Compound: NNC(=O)CS(=O)(=O)Nc1ncccn1
- T/C [9]: 100 % of control
- T/C [10]: 100 % of control
- T/C [11]: 100 % of control

Compound: Nc1ccccc1C(=O)CCc1ccccc1C(=O)O
- T/C (dose: 50.0 mg/kg/injection, schedule: Q01DX005 (ip), vehicle: saline with Tween-80): 96 % of control
- T/C (dose: 100.0 mg/kg/injection, schedule: Q01DX005 (ip), vehicle: saline with Tween-80): 99 % of control
- T/C (dose: 200.0 mg/kg/injection, schedule: Q01DX005 (ip), vehicle: saline with Tween-80): 96 % of control

Compound: CS(=O)(=O)C(CCC(=O)C(c1ccccc1)c1ccccc1)C(=O)c1ccccc1 (stereo not given)
- T/C [9]: 110 % of control
- T/C [10]: 109 % of control
- T/C [11]: 93 % of control

Compound: CC(C)(NC(=O)OCc1ccccc1)C(=O)n1cc(CC(C(=O)OCc2ccccc2)n2cnc3ccccc3c2=O)c2ccccc21 (stereo not given)
- T/C (dose: 8.75 mg/kg/injection, schedule: Q01DX005 (ip), vehicle: Klucel (hydroxypropylcellulose) (HPC)): 96 % of control
- T/C (dose: 17.5 mg/kg/injection, schedule: Q01DX005 (ip), vehicle: Klucel (hydroxypropylcellulose) (HPC)): 100 % of control
- T/C (dose: 35.0 mg/kg/injection, schedule: Q01DX005 (ip), vehicle: Klucel (hydroxypropylcellulose) (HPC)): 99 % of control

Compound: CN(C)CCCN1c2ccc(O)cc2Sc2ccc(Cl)cc21
- T/C (dose: 25.0 mg/kg/injection, schedule: Q04DX003 (ip), vehicle: saline with Tween-80): 100 % of control
- T/C (dose: 50.0 mg/kg/injection, schedule: Q04DX003 (ip), vehicle: saline with Tween-80): 95 % of control
- T/C [3]: 95 % of control

Compound: CN(NC(=O)CC(=O)NN(C)C(=S)c1ccccc1)C(=S)c1ccccc1
- T/C (dose: 12.5 mg/kg/injection, schedule: Q01DX009 (ip), vehicle: gum acacia): 97 % of control
- T/C (dose: 25.0 mg/kg/injection, schedule: Q01DX009 (ip), vehicle: gum acacia): 115 % of control
- T/C (dose: 50.0 mg/kg/injection, schedule: Q01DX009 (ip), vehicle: gum acacia): 104 % of control

Compound: O=C1c2ccccc2C(=O)N1CN1C(=O)c2ccccc2C1=O
- T/C [6]: 95 % of control
- T/C [7]: 115 % of control and 90 % of control
- T/C [8]: 90 % of control
- T/C [4]: 100 % of control

Compound: N=C(N)Sc1ccc([N+](=O)[O-])cc1Cl
- T/C [9]: 104 % of control
- T/C [10]: 104 % of control
- T/C [11]: 101 % of control

Compound: CCOC1(OCC)Oc2c(Cl)c(Cl)c(Cl)c(Cl)c2OC1(OCC)OCC
- T/C [5]: 99 % of control
- T/C (dose: 120.0 mg/kg/injection, schedule: Q01DX005 (ip), vehicle: Klucel (hydroxypropylcellulose) (HPC)): 100 % of control
- T/C (dose: 240.0 mg/kg/injection, schedule: Q01DX005 (ip), vehicle: Klucel (hydroxypropylcellulose) (HPC)): 104 % of control

Compound: O=C(O)c1ccc(C(=O)NCCCN(CCCCN(CCCNC(=O)c2ccc(C(=O)O)c(O)c2O)C(=O)c2ccc(C(=O)O)c(O)c2O)C(=O)c2ccc(C(=O)O)c(O)c2O)c(O)c1O
- T/C (dose: 50.0 mg/kg/injection, schedule: Q01DX005 (ip), vehicle: saline): 99 % of control
- T/C (dose: 100.0 mg/kg/injection, schedule: Q01DX005 (ip), vehicle: saline): 101 % of control
- T/C (dose: 200.0 mg/kg/injection, schedule: Q01DX005 (ip), vehicle: saline): 99 % of control

Compound: CC(C)N(C(C)C)C1C2=C(CCSC2)OC(=O)C1(Cl)Cl (stereo not given)
- T/C [7]: 103 % of control
- T/C [8]: 100 % of control
- T/C [4]: 96 % of control
